Data: patent US10407467B2, “Polymyxin derivatives and their use in combination therapy together with different antibiotics” (priority 2013, dated 2019)
Structures can show the parent of a compound that is named as a salt. Bridge positions count the residues as written; N and C are the ends. Square brackets hold non-standard residues; d marks the D form. Peptide text beside a SMILES is read from it. * marks the point of attachment. ξ: configuration not given here. Thr(3ξ) = CC(O)[C@H](N)C(=O)O; Dab = NCC[C@H](N)C(=O)O; Inp = O=C(O)C1CCNCC1; X4 = NC1CCCC1C(=O)*; Ahx = NCCCCCC(=O)O

How the values were obtained:
Assay type in all cases: cell-based
Acinetobacter baumannii [1] = assay: MIC, compound in combination with a second agent (broth microdilution); conditions: 1:1 (wt:wt) combination with Rifampicin
Summary of the method: (§1)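 Susceptibility was tested on up to four strains of each pathogen with the compound paired 1:1 by weight alongside another antibacterial. Values count both components together and use the lower duplicate if replicates agreed within 2-fold.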

Escherichia coli [2] = assay: as above; conditions: 1:1 (wt:wt) combination with Rifampicin
Summary of the method: as §1

Klebsiella pneumoniae [3] = assay: as above; conditions: 1:1 (wt:wt) combination with Rifampicin; for MIC K. pneumoniae ATCC 4352: strain ATCC 4352
Summary of the method: as §1

Pseudomonas aeruginosa [4] = assay: as above; conditions: 1:1 (wt:wt) combination with Rifampicin
Summary of the method: as §1

Acinetobacter baumannii [5] = assay: MIC, sole activity (no second agent); conditions: in the absence of Rifampicin; for MIC A. baumannii ATCCBAA-747: strain ATCCBAA-747; for MIC A. baumannii NCTC 13423: strain NCTC13423; for MIC A. baumannii ATCC13424: strain ATCC13424
Summary of the method: (§2)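 First, isolated colonies grown 18-24 hours on Mueller-Hinton agar were suspended to 0.5 McFarland; next, up to four strains per pathogen were tested in duplicate in cation-adjusted MHB; finally, the lower concordant value or modal repeat value was reported against Polymyxin B.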

Escherichia coli [6] = assay: MIC, sole activity (no second agent); conditions: in the absence of Rifampicin
Summary of the method: as §2

Klebsiella pneumoniae [7] = assay: MIC, sole activity (no second agent); conditions: in the absence of Rifampicin; for MIC K. pneumoniae ATCC 4352: strain ATCC 4352; for MIC K. pneumoniae ATCC-BAA2146: strain ATCC-BAA2146; for MIC K. pneumoniae CCUG-59348: strain CCUG-59348
Summary of the method: as §2

Pseudomonas aeruginosa [8] = assay: MIC, sole activity (no second agent); conditions: in the absence of Rifampicin; for MIC P. aeruginosa ATCC 27853: strain ATCC27853; for MIC P. aeruginosa ATCCCRM-9027: strain ATCCCRM-9027; for MIC P. aeruginosa CCUG 59626: strain CCUG 59626
Summary of the method: as §2

[9] = MIC = total drug concentration, strain ATCC BAA-747
[10] = MIC = total drug concentration, strain CCUG57249
[11] = MIC = total drug concentration, strain NCTC 13423
[12] = MIC = total drug concentration, strain NCTC 13424
[13] = MIC = total drug concentration, strain ATCC25922
[14] = MIC = total drug concentration, strain NCTC9001
[15] = MIC = total drug concentration, strain ATCC-BAA-2146
[16] = MIC = total drug concentration, strain CCUG-59348
[17] = MIC = total drug concentration, strain NCTC 13438
[18] = MIC = total drug concentration, strain ATCC CRM-9027
[19] = MIC = total drug concentration, strain ATCC-47
[20] = MIC = total drug concentration, strain CCUG 59626
[21] = MIC = total drug concentration, strain ATCC 27853
[22] = MIC is total drug concentration

| MIC A. baumannii ATCC BAA-747 (Acinetobacter baumannii [1]; [9]) [micrograms/mL] | MIC A. baumannii CCUG57249 (Acinetobacter baumannii [1]; [10]) [micrograms/mL] | MIC A. baumannii NCTC 13423 (Acinetobacter baumannii [1]; [11]) [micrograms/mL] | MIC A. baumannii NCTC 13424 (Acinetobacter baumannii [1]; [12]) [micrograms/mL] | MIC E. coli ATCC25922 (Escherichia coli [2]; [13]) [micrograms/mL] | MIC E. coli NCTC9001 (Escherichia coli [2]; [14]) [micrograms/mL] | MIC K. pneumoniae ATCC-BAA-2146 (Klebsiella pneumoniae [3]; [15]) [micrograms/mL] | MIC K. pneumoniae CCUG-59348 (Klebsiella pneumoniae [3]; [16]) [micrograms/mL] | MIC K. pneumoniae NCTC 13438 (Klebsiella pneumoniae [3]; [17]) [micrograms/mL] | MIC P. aeruginosa ATCC CRM-9027 (Pseudomonas aeruginosa [4]; [18]) [micrograms/mL] | MIC P. aeruginosa ATCC-47 (Pseudomonas aeruginosa [4]; [19]) [micrograms/mL] | MIC P. aeruginosa CCUG 59626 (Pseudomonas aeruginosa [4]; [20]) [micrograms/mL] | MIC A. baumannii ATCCBAA-747 (Acinetobacter baumannii [5]) [micrograms/mL] | MIC A. baumannii NCTC 13423 (Acinetobacter baumannii [5]) [micrograms/mL] | MIC K. pneumoniae ATCC 4352 (Klebsiella pneumoniae [7]) [micrograms/mL] | MIC P. aeruginosa ATCC 27853 (Pseudomonas aeruginosa [8]) [micrograms/mL] | MIC P. aeruginosa ATCCCRM-9027 (Pseudomonas aeruginosa [8]) [micrograms/mL] | Compound | MIC K. pneumoniae ATCC 4352 (Klebsiella pneumoniae [3]; MIC = total drug concentration) [micrograms/mL] | MIC P. aeruginosa ATCC 27853 (Pseudomonas aeruginosa [4]; [21]) [micrograms/mL] | MIC A. baumannii ATCC13424 (Acinetobacter baumannii [5]) [micrograms/mL] | other results |
| --- | --- | --- | --- | --- | --- | --- | --- | --- | --- | --- | --- | --- | --- | --- | --- | --- | --- | --- | --- | --- | --- |
| ≤0.06 | ≤0.06 | ≤0.06 | ≤0.06 | 0.125 | 0.5 | 0.5 | 4 | 0.5 | 0.25 | 0.25 | 0.125 | 8 | 0.5 | 0.5 | 0.5 | 0.25 | CC(C)C[C@@H]1NC(=O)[C@@H](Cc2ccccc2)NC(=O)[C@H](CCN)NC(=O)[C@@H](NC(=O)[C@H](CCN)NC(=O)[C@@H](NC(=O)CCCCCN)C(C)O)CCNC(=O)[C@H](C(C)O)NC(=O)[C@H](CCN)NC(=O)[C@H](CCN)NC1=O (stereo partly drawn) [Example 2, 6-Aminohexanoyl polymyxin B nonapeptide] (H-[Ahx][Thr(3ξ)][Dab][Dab][Dab][dF]L[Dab][Dab][Thr(3ξ)]; lactam 4-C) | – | – | – | MIC E. coli ATCC25922 (Escherichia coli [6]; strain ATCC25922): 2 micrograms/mL; MIC E. coli NCTC9001 (Escherichia coli [6]; strain NCTC9001): 8 micrograms/mL |
| ≤0.06 | ≤0.06 | ≤0.06 | 0.125 | ≤0.06 | 0.25 | 0.25 | 4 | 0.5 | 0.25 | 0.25 | 0.125 | 1 | 1 | 0.5 | 0.125 | 0.125 | CC(C)C[C@@H]1NC(=O)[C@@H](Cc2ccccc2)NC(=O)[C@H](CCN)NC(=O)[C@@H](NC(=O)[C@H](CCN)NC(=O)[C@@H](NC(=O)C2CCCC2N)C(C)O)CCNC(=O)[C@H](C(C)O)NC(=O)[C@H](CCN)NC(=O)[C@H](CCN)NC1=O (stereo partly drawn) [Example 7, (1R,S/2R,S)-2-Aminocyclopentane-carbonyl polymyxin B nonapeptide] (X4-[Thr(3ξ)][Dab][Dab][Dab][dF]L[Dab][Dab][Thr(3ξ)]; lactam 3-C) | 0.125 | 0.125 | 2 | MIC A. baumannii CCUG57249 (Acinetobacter baumannii [5]; strain CCUG 57249): 2 micrograms/mL; MIC K. pneumoniae ATCC-BAA2146 (Klebsiella pneumoniae [7]): >32 micrograms/mL; MIC K. pneumoniae CCUG-59348 (Klebsiella pneumoniae [7]): >32 micrograms/mL; MIC P. aeruginosa ATCC-47 (Pseudomonas aeruginosa [8]; strain ATCC-47): 1 micrograms/mL; MIC P. aeruginosa CCUG 59626 (Pseudomonas aeruginosa [8]): 0.125 micrograms/mL |

| Compound | MIC A. baumannii ATCC BAA-747 (Acinetobacter baumannii [1]; [9]) [micrograms/mL] | MIC A. baumannii CCUG57249 (Acinetobacter baumannii [1]; [10]) [micrograms/mL] | MIC A. baumannii NCTC 13423 (Acinetobacter baumannii [1]; [11]) [micrograms/mL] | MIC A. baumannii NCTC 13424 (Acinetobacter baumannii [1]; [12]) [micrograms/mL] | MIC E. coli ATCC25922 (Escherichia coli [2]; [13]) [micrograms/mL] | MIC E. coli NCTC9001 (Escherichia coli [2]; [14]) [micrograms/mL] | MIC K. pneumoniae ATCC-BAA-2146 (Klebsiella pneumoniae [3]; [15]) [micrograms/mL] | MIC K. pneumoniae CCUG-59348 (Klebsiella pneumoniae [3]; [16]) [micrograms/mL] | MIC K. pneumoniae NCTC 13438 (Klebsiella pneumoniae [3]; [17]) [micrograms/mL] | MIC P. aeruginosa ATCC CRM-9027 (Pseudomonas aeruginosa [4]; [18]) [micrograms/mL] | MIC P. aeruginosa ATCC-47 (Pseudomonas aeruginosa [4]; [19]) [micrograms/mL] | MIC P. aeruginosa CCUG 59626 (Pseudomonas aeruginosa [4]; [20]) [micrograms/mL] | MIC A. baumannii ATCCBAA-747 (Acinetobacter baumannii [5]) [micrograms/mL] | MIC A. baumannii NCTC 13423 (Acinetobacter baumannii [5]) [micrograms/mL] | MIC K. pneumoniae ATCC 4352 (Klebsiella pneumoniae [7]) [micrograms/mL] | MIC P. aeruginosa ATCC 27853 (Pseudomonas aeruginosa [8]) [micrograms/mL] | MIC P. aeruginosa ATCCCRM-9027 (Pseudomonas aeruginosa [8]) [micrograms/mL] | MIC K. pneumoniae ATCC 4352 (Klebsiella pneumoniae [3]; MIC = total drug concentration) [micrograms/mL] | MIC P. aeruginosa ATCC 27853 (Pseudomonas aeruginosa [4]; [21]) [micrograms/mL] | MIC A. baumannii ATCC13424 (Acinetobacter baumannii [5]) [micrograms/mL] | other results |
| --- | --- | --- | --- | --- | --- | --- | --- | --- | --- | --- | --- | --- | --- | --- | --- | --- | --- | --- | --- | --- | --- |
| CC(C)C[C@@H]1NC(=O)[C@@H](Cc2ccccc2)NC(=O)[C@H](CCN)NC(=O)[C@@H](NC(=O)[C@H](CCN)NC(=O)[C@@H](NC(=O)C2CCNCC2)C(C)O)CCNC(=O)[C@H](C(C)O)NC(=O)[C@H](CCN)NC(=O)[C@H](CCN)NC1=O (stereo partly drawn) [Example 29, 4-piperidinecarbonyl polymyxin B nonapeptide, trifluoroacetate] (H-[Inp][Thr(3ξ)][Dab][Dab][Dab][dF]L[Dab][Dab][Thr(3ξ)]; lactam 4-C) | ≤0.06 | 0.125 | ≤0.06 | 0.125 | 0.125 | 0.25 | 0.25 | 4 | 0.5 | 0.125 | 0.25 | 0.125 | – | – | – | – | – | ≤0.06 | 0.125 | 2 | MIC A. baumannii ATCC BAA-747 (Acinetobacter baumannii [1]; [22]): ≤0.06 micrograms/mL; MIC A. baumannii CCUG57249 (Acinetobacter baumannii [1]; [22]): 0.125 micrograms/mL; MIC A. baumannii NCTC 13423 (Acinetobacter baumannii [1]; [22]): ≤0.06 micrograms/mL; MIC A. baumannii NCTC 13424 (Acinetobacter baumannii [1]; [22]): 0.125 micrograms/mL; MIC E. coli ATCC25922 (Escherichia coli [2]; [22]): 0.125 micrograms/mL; MIC E. coli NCTC9001 (Escherichia coli [2]; [22]): 0.25 micrograms/mL; MIC K. pneumoniae ATCC-BAA-2146 (Klebsiella pneumoniae [3]; [22]): 0.25 micrograms/mL; MIC K. pneumoniae CCUG-59348 (Klebsiella pneumoniae [3]; [22]): 4 micrograms/mL; MIC K. pneumoniae NCTC 13438 (Klebsiella pneumoniae [3]; [22]): 0.5 micrograms/mL; MIC P. aeruginosa ATCC 27853 (Pseudomonas aeruginosa [4]; [22]): 0.125 micrograms/mL; MIC P. aeruginosa ATCC CRM-9027 (Pseudomonas aeruginosa [4]; [22]): 0.125 micrograms/mL; MIC P. aeruginosa ATCC-47 (Pseudomonas aeruginosa [4]; [22]): 0.25 micrograms/mL; MIC P. aeruginosa CCUG 59626 (Pseudomonas aeruginosa [4]; [22]): 0.125 micrograms/mL; MIC K. pneumoniae ATCC-BAA2146 (Klebsiella pneumoniae [7]): >32 micrograms/mL; MIC K. pneumoniae CCUG-59348 (Klebsiella pneumoniae [7]): >32 micrograms/mL; MIC P. aeruginosa CCUG 59626 (Pseudomonas aeruginosa [8]): 0.125 micrograms/mL |
